{"source": "patent US11446300B2", "about": "(Alexion Pharmaceuticals, Inc., priority 2015, dated 2022)", "key": {"[1]": {"system": "DHL6", "experiment": "DLBCL cell line viability, CellTiter Glo, ten-point curve", "type": "cell-based", "settings": "read-out: IC50 of Kinase Inhibitor in Cell Titer Glo Assay"}, "[2]": {"system": "DHL4", "experiment": "DLBCL cell line viability, CellTiter Glo, ten-point curve", "type": "cell-based", "settings": "read-out: IC50 of Kinase Inhibitor in Cell Titer Glo Assay"}, "[3]": {"system": "U2932", "experiment": "DLBCL cell line viability, CellTiter Glo, ten-point curve", "type": "cell-based", "settings": "Homo sapiens, read-out: IC50 of Kinase Inhibitor in Cell Titer Glo Assay", "quoted_text": "(§3) Each IC50 value is an average of at least four replicate experiments."}, "[4]": {"system": "LY1", "experiment": "DLBCL cell line viability, CellTiter Glo, ten-point curve", "type": "cell-based", "settings": "read-out: IC50 of Kinase Inhibitor in Cell Titer Glo Assay", "quoted_text": "as §3"}, "[5]": {"system": "DLCL2", "experiment": "DLBCL cell line viability, CellTiter Glo, ten-point curve", "type": "cell-based", "settings": "read-out: IC50 of Kinase Inhibitor in Cell Titer Glo Assay"}, "[6]": {"system": "DB", "experiment": "DLBCL cell line viability, CellTiter Glo, ten-point curve", "type": "cell-based"}, "[7]": {"system": "DHL10", "experiment": "Combination synergy, Cell Titer Glo, 72 hours", "type": "cell-based", "settings": "DHL10, 72 hours", "protocol": "(§1) Synergistic anti-tumor activity in DLBCL cell lines was determined using the Cell Titer Glo assay. Briefly, 5,000 cells were plated in 96 well plates in complete tissue culture media. […] Cells were incubated with or without drug for 72 hours in a 37° C. tissue culture incubator prior to evaluation by CellTiter Glo as per the manufacturer protocol (Promega). Synergy was evaluated by calculating combination index score, as described elsewhere (Jacquement et al, Molecular Cancer 2012) following IC50 determination using Prism software. The compounds are commercially available or are made according to synthetic methods known to those skilled in the art.\nas §1, with “calculating a” for “calculating”"}, "[8]": {"system": "DHL4 (SU-DHL4)", "experiment": "Combination synergy, Cell Titer Glo, 72 hours", "type": "cell-based", "settings": "Homo sapiens", "protocol": "as §1\nas §1, with “calculating a” for “calculating”"}, "[9]": {"system": "DHL6", "experiment": "Combination synergy, Cell Titer Glo, 72 hours", "type": "cell-based", "settings": "DHL6, 72 hours", "protocol": "as §1\nas §1, with “calculating a” for “calculating”"}, "[10]": {"system": "Lyl (OCI-Lyl)", "experiment": "Combination synergy, Cell Titer Glo, 72 hours", "type": "cell-based", "protocol": "as §1\nas §1, with “calculating a” for “calculating”"}, "[11]": {"system": "VAL", "experiment": "Combination synergy, Cell Titer Glo, 72 hours", "type": "cell-based", "settings": "VAL, 72 hours", "protocol": "as §1\nas §1, with “calculating a” for “calculating”"}, "[12]": {"system": "TOLEDO", "experiment": "Combination synergy, Cell Titer Glo, 72 hours", "type": "cell-based", "settings": "Homo sapiens", "protocol": "as §1"}, "[13]": {"system": "U2932", "experiment": "Combination synergy, Cell Titer Glo, 72 hours", "type": "cell-based", "settings": "Homo sapiens", "protocol": "as §1"}, "[14]": {"system": "SYK and JAK signaling", "experiment": "Phase I study, inhibition of SYK and JAK in whole blood assays", "type": "in vivo, human", "protocol": "(§2) Pharmacokinetics (“PK”), pharmacodynamics (“PD”), and safety were monitored. Response was assessed by standard criteria. The level of inhibition of SYK and JAK was determined using a variety of whole blood assays measuring signaling via receptors for the B-cell antigen, IL2, IL4, IL6, and GM-CSF. Serum markers of tumor burden, including CCL3, CCL4, and other markers of inflammation (02M and CRP), were also being measured."}, "[15]": {"system": "IL2, IL4, IL6 signaling", "experiment": "Phase I study, whole blood assay of IL2, IL4, IL6 signaling", "type": "in vivo", "settings": "Homo sapiens; Patient 1; 65 mg PO QD", "protocol": "as §2"}, "[16]": {"target": "T1, JAK2 (Homo sapiens, UniProt O60674)", "T1 construct": "endogenous in cells; host or cells: whole blood of dosed patients", "T1 sequence (O60674 whole entry)": "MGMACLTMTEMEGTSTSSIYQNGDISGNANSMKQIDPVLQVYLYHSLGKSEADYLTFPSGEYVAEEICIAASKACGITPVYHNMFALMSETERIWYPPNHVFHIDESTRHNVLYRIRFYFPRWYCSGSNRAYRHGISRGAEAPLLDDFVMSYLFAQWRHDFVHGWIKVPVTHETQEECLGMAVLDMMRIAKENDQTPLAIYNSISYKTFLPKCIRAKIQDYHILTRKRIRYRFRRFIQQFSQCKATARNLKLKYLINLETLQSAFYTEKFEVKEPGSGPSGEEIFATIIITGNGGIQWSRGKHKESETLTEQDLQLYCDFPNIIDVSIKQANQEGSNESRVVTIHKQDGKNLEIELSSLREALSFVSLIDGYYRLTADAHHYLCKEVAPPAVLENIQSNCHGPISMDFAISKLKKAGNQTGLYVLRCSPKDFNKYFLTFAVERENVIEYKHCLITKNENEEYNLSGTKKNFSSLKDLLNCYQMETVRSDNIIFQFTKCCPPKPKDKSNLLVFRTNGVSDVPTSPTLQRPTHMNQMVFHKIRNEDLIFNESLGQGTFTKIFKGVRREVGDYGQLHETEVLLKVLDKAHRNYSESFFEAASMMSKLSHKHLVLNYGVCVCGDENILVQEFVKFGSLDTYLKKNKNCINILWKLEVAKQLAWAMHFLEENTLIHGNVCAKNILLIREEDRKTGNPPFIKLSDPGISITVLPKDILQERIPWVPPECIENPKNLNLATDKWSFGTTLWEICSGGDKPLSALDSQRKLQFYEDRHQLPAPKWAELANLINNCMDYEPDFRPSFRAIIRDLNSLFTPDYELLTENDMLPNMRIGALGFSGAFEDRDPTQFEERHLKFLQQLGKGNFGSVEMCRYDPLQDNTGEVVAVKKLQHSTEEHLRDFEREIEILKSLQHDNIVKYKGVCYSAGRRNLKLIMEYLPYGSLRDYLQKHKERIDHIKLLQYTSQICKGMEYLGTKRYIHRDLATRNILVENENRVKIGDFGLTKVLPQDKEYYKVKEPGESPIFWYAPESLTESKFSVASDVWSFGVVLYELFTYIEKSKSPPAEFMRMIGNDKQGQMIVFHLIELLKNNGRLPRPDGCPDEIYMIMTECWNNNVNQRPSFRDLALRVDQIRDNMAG", "experiment": "Phase I study, selectivity of signaling inhibition", "settings": "in vivo", "protocol": "as §2"}, "[17]": {"system": "primary CLL cells", "experiment": "Primary CLL cell viability assay, PI staining, 72 hours", "type": "cell-based, human", "settings": "for IC50: Homo sapiens, CLL cell, 60 CLL samples, 72 hours", "protocol": "Isolated CLL cells were cultured in RPMI-1640 with 15% fetal bovine serum (Gibco, Grand Island, N.Y., USA), penicillin (100 IU), and streptomycin (100 μg/mL), at a density of 1×10^7 cells/mL in the presence or absence of […] CpG, 100 ng/mL CD40L, 10 ng/mL IL-4. Anti-IgM stimulation was conducted with plate-bound anti-IgM (10 μg/mL). CLL cells were stimulated with 10 ng/mL IL-6 (R&D Systems, Minneapolis, Minn.), to detect the phosphorylation of JAK1/JAK2 (Cell Signaling Technology, Danvers, Mass.) and STAT3 (Cell Signaling Technology, Danvers, Mass., USA).\nTen thousand events in a live cell gate were counted by a FACS LSR2 (BD Biosciences) and the data was normalized to the matched vehicle control for each specimen (100%). IC50 was then generated using the GraphPad Prism 6 program (San Diego, Calif., USA)."}, "[18]": {"system": "DLBCL cell lines", "experiment": "Cerdulatinib-sensitive DLBCL cell lines co-cultured with CD40L", "type": "cell-based", "settings": "of 7 cerdulatinib-sensitive cell lines tested", "text": "Consistent with the loss of IκBα in RCK8, the cell line presented with enhanced basal NFκB activity. […] Associated with suppression of NFκB was decreased cellular pAKT S473 and […], but not of pSTAT3 Y705. We then attempted to knock IκBα down in cerdulatinib-sensitive cell lines using siRNA to determine if resistance to SYK/JAK inhibition could be generated. […] Ligation of CD40 leads to a transient down-regulation of IκBα at the protein level. […] The impact on NFκB activation was much longer, however, and of 7 cerdulatinib-sensitive cell lines tested, 5 were made resistant by co-culture with CD40L. Associated with this resistance was not only induction of NFκB, but also pERK Y204, pAKT S473, and pSTAT3 Y705."}, "[19]": {"settings": "single agents and cerdulatinib:ABT-199 ratios"}, "[20]": {"settings": "single agents and cerdulatinib:ibrutinib ratios"}}, "note": "Like-named read-outs stand apart in the source and are kept apart here."}
{"smiles": "CCS(=O)(=O)N1CCN(c2ccc(Nc3ncc(C(N)=O)c(NC4CC4)n3)cc2)CC1", "note": "[Cerdulatinib, 4-(cyclopropylamino)-2-(4-(4-(ethylsulfonyl)piperazin-1-yl)phenylamino)pyrimidine-5-carboxamide]", "values": [{"measurement": "IC50", "setting": "[1]", "result": 1.2, "unit": "µM"}, {"measurement": "IC50", "setting": "[2]", "result": 1.4, "unit": "µM"}, {"measurement": "IC50", "setting": "[3]", "result": 2.6, "unit": "µM"}, {"measurement": "IC50", "setting": "[4]", "result": 4.4, "unit": "µM"}, {"measurement": "IC50", "setting": "[5]", "result": 5.4, "unit": "µM"}, {"measurement": "response of cell line", "setting": "[6]; DB", "result": "resistant"}, {"measurement": "IC50", "setting": "[6]; Homo sapiens, DB cell line, read-out: IC50 of Kinase Inhibitor in Cell Titer Glo Assay", "result": 14, "unit": "µM"}, {"measurement": "IC50", "setting": "[7]; [19]", "result": 0.3, "unit": "µM"}, {"measurement": "IC50", "setting": "[7]; [20]", "result": 0.22, "unit": "µM"}, {"measurement": "IC50", "setting": "[8]; SU-DHL-4, 72 h, DHL4, 72 hours, single agents and cerdulatinib:ABT-199 ratios, read-out: IC50", "result": 1.49, "unit": "µM"}, {"measurement": "IC50", "setting": "[8]; SU-DHL-4, 72 h, DHL4, 72 hours, single agents and cerdulatinib:ibrutinib ratios, read-out: IC50", "result": 1.7, "unit": "µM"}, {"measurement": "IC50", "setting": "[8]; SU-DHL-4, SU-DHL4 cell line, read-out: IC50 value", "result": 1.49, "unit": "µM"}, {"measurement": "IC50", "setting": "[9]; [19]", "result": 0.62, "unit": "µM"}, {"measurement": "IC50", "setting": "[9]; [20]", "result": 0.56, "unit": "µM"}, {"measurement": "IC50", "setting": "[10]", "result": 4.3, "unit": "µM"}, {"measurement": "IC50", "setting": "[11]; [19]", "result": 1.3, "unit": "µM"}, {"measurement": "IC50", "setting": "[11]; [20]", "result": 1.33, "unit": "µM"}, {"measurement": "IC50", "setting": "[12]", "result": 5.1, "unit": "µM"}, {"measurement": "IC50", "setting": "[13]; U2932, 72 h, read-out: IC50", "result": 3.73, "unit": "µM"}, {"measurement": "IC50", "setting": "[13]; U2932 cell line, read-out: IC50 value", "result": 3.73, "unit": "µM"}, {"measurement": "inhibition of SYK and JAK at SS Cmin, peripheral blood assays", "setting": "[14]; 45 mg BID", "result": "complete inhibition"}, {"measurement": "inhibition at 65 mg", "setting": "[14]; Homo sapiens, 24 h, 65 mg dose, day 1 of cycle 1, read-out: inhibition of SYK/JAK and serum inflammation markers", "result": "80 to 90", "unit": "%"}, {"measurement": "inhibition of SYK and JAK signaling in peripheral blood (steady-state Cmin to Cmax)", "setting": "[14]; QD dosing of 40-100 mg", "result": "50 to 100", "unit": "%"}, {"measurement": "inhibition at 65 mg", "setting": "[15]", "result": "60 to 100", "unit": "%"}, {"measurement": "inhibition of JAK2", "setting": "[16]", "result": "no inhibition"}, {"measurement": "IC50", "setting": "[17]; read-out: IC50 range", "result": "0.37 to 10", "unit": "µM"}, {"measurement": "IC50", "setting": "[17]; read-out: average IC50 for the cohort", "result": 2.57, "unit": "µM"}, {"measurement": "sensitivity of CLL cells with high-risk genetic abnormalities", "setting": "[17]; del (11q), trisomy 12, del (17p) versus del (13q) or none", "result": "more sensitive"}, {"measurement": "sensitivity of CLL cells with unmutated IGHV versus mutated IGHV", "setting": "[17]; unmutated N=33, mutated N=27, P=0.0395", "result": "more sensitive"}, {"measurement": "cell lines made resistant by co-culture with CD40L", "setting": "[18]", "result": 5}]}
